Experimental data published in US20240287005A1, “ISOXAZOLINE PESTICIDES” (Elanco Tiergesundheit AG, priority 2021, published 2024).

Tested on: Ctenocephalides felis
Test: In vitro evaluation of contact activity against adult cat fleas
Details: adult fleas in coated glass vial, after 48 h
Experimental: In vitro contact tests with […] are conducted with adult males and females of Ctenocephalides felis. For the coating of the test vials, the test substance is dissolved and diluted in acetone p.a. to the desired concentration. The solution is then homogeneously applied to the inner walls and base of a glass vial by turning and rocking on an orbital shaker until complete evaporation of the solvent. For example, with 900 ppm solution of test substance an area-based dose of 5 μg/cm^2 is achieved.
After the solvent is completely evaporated, approximately 10 adult fleas are applied to each coated test vial, which is then sealed with a perforated plastic lid and incubated in a horizontal position in the dark at room temperature and ambient humidity. Insecticidal activity is determined after 48 h. Fleas which remain motionless on the base of the test vial or move uncoordinated without occasionally jumping or walking straight are considered dead or moribund, respectively. An insecticidal activity of 100% means all fleas were dead or moribund. An insecticidal activity of 0% means none of the fleas was affected. From a dose response curve the respective EC50 was calculated (4-parameter logistic curve fitting).

`Cc1cc(C2=NOC(c3cc(C(F)(F)F)cc(C(F)(F)F)c3F)(C(F)(F)F)C2)ccc1C(=O)NCC(=O)NCC(F)(F)F` (single isomer, unassigned) [Example 3.1] was tested, and the “EC50 insecticidal activity (fleas dead or moribund)” value was under 0.05 μg/cm^2.
